# Reference: PubChem BioAssay AID2305 (GlaxoSmithKline (GSK), 2010)
# Tested on: P. falciparum 3D7 growth, pLDH absorbance
# Assay: blood-stage malaria parasite growth potency – strain 3D7, dose response (AID 2305)
row,SMILES,IC50
1,CC(C)C[C@@H](NC(=O)NC1CCC(CCN2[C@@H]3CC[C@H]2CC(OC(=O)C(CO)c2ccccc2)C3)CC1)C(O)(c1ccccc1)c1ccccc1 (stereo not given in full),1070 nM
2,COc1cccc(Nc2nc(C)cc(NC3CCCC3)n2)c1,1110 nM
3,CCCCc1ccc(C(=O)Nc2ccc3nc(N4CCN(C)CC4)cc(C)c3c2)cc1,1100 nM
4,COc1coc(C(=O)NC2CCN(CC3(c4ccc(Cl)cc4)CCC3)CC2)c1OC,160 nM
5,Cc1cc(F)ccc1-c1nc(NCCCN2CCCC2=O)nc2c1ccc(=O)n2-c1c(F)cccc1F,1020 nM
6,COc1ccc2nccc([C@@H](O)CN3CCC(NCCOc4cc(C(F)(F)F)ccc4F)CC3)c2c1,110 nM
7,COc1ccc(-c2ccc(NC(=O)c3cccc(Cl)c3)cc2)cc1CN(C)CCO,710 nM
8,O=C(/C=C/c1ccc(Cl)c(Cl)c1)NC1CCC(CN2CCC(c3nc4ccccc4n3CCCO)CC2)CC1 (stereo not given),580 nM
9,O=C(Nc1ccccc1F)N(CCCn1ccnc1)Cc1csc(-c2ccc(CNCc3ccccc3)cc2)n1,840 nM
10,O=C(Nc1ccc2c(c1)OCO2)NC1CCN(c2ccnc(NCc3ccc(F)cc3)n2)CC1,940 nM
11,COc1cccc(NC(=O)c2cc([N+](=O)[O-])ccc2NC(=O)CN2CCc3ccccc3C2)c1,590 nM
12,COc1ccc(-c2cccc(CNCc3ccc(F)cc3)c2)cc1S(=O)(=O)NCCN1CCCC1,1850 nM
13,Cc1cccc(OCC2CCN(c3ncc(C(=O)NC4CC4)cc3Cl)CC2)c1,1330 nM
14,CCCC[C@@H](C(=O)NCCc1ccc(Cl)cc1)N1C(=O)CCC1C(=O)Nc1ccc(Cl)c(Cl)c1 (stereo not given in full),870 nM
15,COc1ccc(N(C)Cc2cnc3nc(N)nc(N)c3n2)cc1,280 nM
16,CCOC(=O)c1cn(CC)c2cc(N3CCCCC3)c(F)cc2c1=O,130 nM
17,CCOc1cc(C(=O)NCCCN2CCN(c3cccc(Cl)c3)CC2)ccc1-c1nc2cc(Cl)c(F)cc2[nH]1,870 nM
18,Cn1cncc1C(=O)Nc1ccc(-c2cccc(-c3nc4ccc(F)cc4[nH]3)c2)cc1,820 nM
19,CCc1nc2nc(C)cc(Nc3cc(C)cc(C)c3)n2n1,290 nM
20,CCN(CC)CCN(Cc1ccc(-c2ccc(C(F)(F)F)cc2)cc1)C(=O)c1ccc(-c2ccc(NC(=O)OC)cc2C)cc1,930 nM
21,O=C(NCCCN1CCC(N2CCCCC2)CC1)C1=Cc2cc(Br)ccc2OC1,850 nM
22,Cc1cc(N)c2cc(NC(=O)c3cccc4ccccc34)ccc2n1,840 nM
23,CCc1cccc(-c2cc(=N)n(C)c3nc(N)[nH]c(=O)c23)c1,1120 nM
24,O=C(NC1CCN(CCCOc2ccnc3cc(Cl)ccc23)C1)c1ccc(Br)cc1 (stereo not given),1020 nM
25,N=C1c2ccccc2CN1CC(=O)c1ccc(Cl)c(Cl)c1,730 nM

row,SMILES,IC50
1,COc1ccc(CCN(Cc2cccs2)C(=O)c2cc3sccc3n2C)cc1OC,350 nM
2,CCOC(=O)c1c(C)n(C2CCCCCC2)c2cc(Br)c(O)cc12,1200 nM
3,CC[C@H](NC(=O)c1c(N)c(-c2sccc2Cl)nc2ccccc12)c1ccccc1,910 nM
4,CCC(C)c1ccc(O)c(NC(=O)c2cncc(Br)c2)c1 (stereo not given),800 nM
5,CCc1ccc(C2CCN(CCCCNC(=O)c3ccc(-c4ccc(C#N)cc4)cc3)CC2)c(OCCO)c1,940 nM
6,CSC1=NC(=Nc2c(C)cccc2C)C2(CCCCC2)N1c1ccccc1Cl,820 nM
7,COC(=O)c1cc(C(=O)CN(Cc2ccccc2)C(C)C)ccc1O,180 nM
8,N#Cc1ccc(-c2ccc(C(=O)NCCCCN3CCC(c4ccc5c(c4OCC(N)=O)CCCC5)CC3)cc2)cc1,980 nM
9,CC(=O)OC[C@H]1O[C@@H](C#Cc2ccccc2)[C@H](OC(C)=O)[C@@H](OC(C)=O)[C@@H]1OC(C)=O,280 nM
10,Cc1nc2ccc3nc(NC(=O)c4ccno4)sc3c2s1,660 nM
11,COc1ccc(NC(=O)NCC2CCCN(CCCCCNC(=O)/C=C/c3ccc(Cl)c(Cl)c3)C2)c(OC)c1 (stereo not given),860 nM
12,CC(=O)Nc1ccc(C(=O)Nc2cccc(-c3csc(-c4nc5ccccc5[nH]4)c3)c2)cn1,120 nM
13,Cc1nnsc1C(=O)Nc1cccc(-c2ccc(-c3nc4ccccc4[nH]3)cc2)c1,870 nM
14,Cc1nc2ccccc2c(=O)n1NCc1ccc(Cl)c(Cl)c1,150 nM
15,CCCCCC(C)c1cc(O)c2c(c1)OC(C)(C)C=C2C1=CCN(Cc2ccccc2)CC1 (stereo not given),780 nM
16,N#Cc1ccc(/C=C/C(=O)NCCCCCN2CCN(C(=O)Nc3ccc(Cl)c(C(F)(F)F)c3)CC2)cc1,780 nM
17,Clc1ccc2c(NN=Cc3ccccc3)ccnc2c1,760 nM
18,CC(Nc1ncc(-c2ccsc2)c(-c2nccs2)n1)c1ccc2c(c1)OCCO2 (stereo not given),170 nM
19,Cc1ccc2nc(C)cc(NN=Cc3cccc([N+](=O)[O-])c3)c2c1,880 nM
20,Clc1ccc2c(N3CCN(CCN4CCN(c5ccnc6cc(Cl)ccc56)CC4)CC3)ccnc2c1,130 nM
21,Cc1[nH]c(C)c(-c2ccc(Oc3ccc(O)cc3)cc2)c(=O)c1Cl,1040 nM
22,COc1ccc(-c2cnc3[nH]cc(-c4ccncc4)c3c2)cc1OC,130 nM
23,O=C(Nc1ccc(OC2CCN(Cc3ccco3)C2)c(Cl)c1)c1ccc2ncccc2c1 (stereo not given),1080 nM
24,CCc1ccc(C(=O)NC(=O)c2ccccc2O)cc1,610 nM
25,CCCc1cc(Cc2cnc(N)nc2N)cc(CCC)c1OCCCCC(=O)OC,40 nM
